Measured values reported in PMC5218480 (PLoS ONE, 2017).

Tested on: MV-4-11 cells
Assay: Gene expression microarray analysis (Affymetrix PrimeView) and GSEA
Assay type: cell-based, human
Parameters: RFU PODN (11730768_x_at) / Fold change /veh PODN (11730768_x_at) / RFU LINC00158 (11744669_a_at) / Fold change /veh LINC00158 (11744669_a_at) / RFU DUSP10 (11751237_a_at) / Fold change /veh DUSP10 (11751237_a_at) / RFU ID3 (11757404_x_at) / Fold change /veh ID3 (11757404_x_at) / RFU PLEKHG5 (11737974_s_at) / Fold change /veh PLEKHG5 (11737974_s_at) / RFU LRRC4B (11730491_at) / Fold change /veh LRRC4B (11730491_at) / RFU GIMAP4 (11747438_a_at) / Fold change /veh GIMAP4 (11747438_a_at) / RFU KRT8 (11758183_x_at) / Fold change /veh KRT8 (11758183_x_at) / RFU CNN1 (11734310_a_at) / Fold change /veh CNN1 (11734310_a_at) / RFU VPS37D (11726825_at) / Fold change /veh VPS37D (11726825_at) / RFU C10orf10 (11716522_x_at) / Fold change /veh C10orf10 (11716522_x_at) / RFU KIR2DL2 /// KIR2DL4 /// KIR2DL5A /// KIR2DL5B /// KIR2DS1 /// KIR2DS2 /// KIR2DS3 /// KIR2DS4 /// KIR3DL3 /// KIR3DL3 /// KIR3DS1 (11738374_at) / Fold change /veh KIR2DL2 /// KIR2DL4 /// KIR2DL5A /// KIR2DL5B /// KIR2DS1 /// KIR2DS2 /// KIR2DS3 /// KIR2DS4 /// KIR3DL3 /// KIR3DL3 /// KIR3DS1 (11738374_at) / RFU C1QL1 (11718748_at) / Fold change /veh C1QL1 (11718748_at) / RFU TMPRSS4 (11747572_a_at) / Fold change /veh TMPRSS4 (11747572_a_at) / RFU HAMP (11756126_x_at) / Fold change /veh HAMP (11756126_x_at) / RFU RNFT2 (11725882_a_at) / Fold change /veh RNFT2 (11725882_a_at) / RFU NR4A2 (11747474_a_at) / Fold change /veh NR4A2 (11747474_a_at) / RFU ABCC12 (11746883_a_at) / Fold change /veh ABCC12 (11746883_a_at) / RFU TMEM136 (11760407_x_at) / Fold change /veh TMEM136 (11760407_x_at) / RFU CLDN22 /// WWC2 (11732394_at) / Fold change /veh CLDN22 /// WWC2 (11732394_at) / RFU HLA-DPB1 (11760878_x_at) / Fold change /veh HLA-DPB1 (11760878_x_at) / RFU SPINT1 (11716480_a_at) / Fold change /veh SPINT1 (11716480_a_at) / RFU GAP43 (11754022_s_at) / Fold change /veh GAP43 (11754022_s_at) / RFU A4GNT (11735810_at) / Fold change /veh A4GNT (11735810_at) / RFU PRB3 (11715151_x_at) / Fold change /veh PRB3 (11715151_x_at) / RFU TUBB4B (11761932_at) / Fold change /veh TUBB4B (11761932_at) / RFU CAPN14 (11732068_a_at) / Fold change /veh CAPN14 (11732068_a_at) / RFU TMCC2 (11721928_a_at) / Fold change /veh TMCC2 (11721928_a_at) / RFU IRGQ (11745062_a_at) / Fold change /veh IRGQ (11745062_a_at) / RFU FAM174B (11720279_a_at) / Fold change /veh FAM174B (11720279_a_at) / RFU TMPRSS4 (11748680_a_at) / Fold change /veh TMPRSS4 (11748680_a_at) / RFU FAM212B (11763350_a_at) / Fold change /veh FAM212B (11763350_a_at) / RFU PLEKHG5 (11743358_a_at) / Fold change /veh PLEKHG5 (11743358_a_at) / RFU ZSCAN30 (11745921_a_at) / Fold change /veh ZSCAN30 (11745921_a_at) / RFU CMKLR1 (11741424_a_at) / Fold change /veh CMKLR1 (11741424_a_at) / RFU LOC101060620 /// MAPK8IP1 (11723275_at) / Fold change /veh LOC101060620 /// MAPK8IP1 (11723275_at) / RFU SPTSSB (11747773_x_at) / Fold change /veh SPTSSB (11747773_x_at) / RFU PRSS12 (11739890_at) / Fold change /veh PRSS12 (11739890_at) / RFU BIN1 (11741810_x_at) / Fold change /veh BIN1 (11741810_x_at) / RFU WNT11 (11732464_a_at) / Fold change /veh WNT11 (11732464_a_at) / RFU C10orf10 (11716521_a_at) / Fold change /veh C10orf10 (11716521_a_at) / RFU C5orf56 (11738089_at) / Fold change /veh C5orf56 (11738089_at) / RFU CYB561 (11721691_x_at) / Fold change /veh CYB561 (11721691_x_at) / RFU ANKRD19P (11752326_a_at) / Fold change /veh ANKRD19P (11752326_a_at) / RFU OR2T12 /// OR2T33 /// OR2T8 (11738714_s_at) / Fold change /veh OR2T12 /// OR2T33 /// OR2T8 (11738714_s_at) / RFU VCAN (11748164_a_at) / Fold change /veh VCAN (11748164_a_at) / RFU JSRP1 (11732532_at) / Fold change /veh JSRP1 (11732532_at) / RFU KRTAP10-11 (11738290_x_at) / Fold change /veh KRTAP10-11 (11738290_x_at) / RFU MYO3A (11730013_a_at) / Fold change /veh MYO3A (11730013_a_at) / RFU EBF3 (11725865_a_at) / Fold change /veh EBF3 (11725865_a_at) / RFU CAMK2N1 (11719241_x_at) / Fold change /veh CAMK2N1 (11719241_x_at) / RFU C5orf56 (11738088_a_at) / Fold change /veh C5orf56 (11738088_a_at) / RFU OLFML3 (11715873_a_at) / Fold change /veh OLFML3 (11715873_a_at) / RFU LOC100653217 /// NTM (11731650_a_at) / Fold change /veh LOC100653217 /// NTM (11731650_a_at) / RFU MAPK11 (11762145_a_at) / Fold change /veh MAPK11 (11762145_a_at) / RFU FIZ1 (11724087_x_at) / Fold change /veh FIZ1 (11724087_x_at) / RFU OASL (11726364_x_at) / Fold change /veh OASL (11726364_x_at) / RFU SOX15 (11748057_x_at) / Fold change /veh SOX15 (11748057_x_at) / RFU CD79A (11719716_a_at) / Fold change /veh CD79A (11719716_a_at) / RFU HIST1H1D (11736915_at) / Fold change /veh HIST1H1D (11736915_at) / RFU CASKIN2 (11723855_a_at) / Fold change /veh CASKIN2 (11723855_a_at) / RFU LOC730098 (11760151_x_at) / Fold change /veh LOC730098 (11760151_x_at) / RFU OR4N2 (11742367_at) / Fold change /veh OR4N2 (11742367_at) / RFU PRRT2 (11749266_a_at) / Fold change /veh PRRT2 (11749266_a_at) / RFU SNX32 (11753110_a_at) / Fold change /veh SNX32 (11753110_a_at) / RFU CDHR5 (11726645_a_at) / Fold change /veh CDHR5 (11726645_a_at) / RFU RCAN1 (11760418_a_at) / Fold change /veh RCAN1 (11760418_a_at) / RFU FAM167A (11723789_a_at) / Fold change /veh FAM167A (11723789_a_at) / RFU FAM26E (11764081_at) / Fold change /veh FAM26E (11764081_at) / RFU ISYNA1 (11749810_s_at) / Fold change /veh ISYNA1 (11749810_s_at) / RFU ACY1 (11761880_at) / Fold change /veh ACY1 (11761880_at) / RFU 11764098_at / Fold change /veh 11764098_at / RFU SAMD14 (11745864_x_at) / Fold change /veh SAMD14 (11745864_x_at) / RFU NPB (11741838_a_at) / Fold change /veh NPB (11741838_a_at) / RFU TMPRSS6 (11731388_a_at) / Fold change /veh TMPRSS6 (11731388_a_at) / RFU KRTAP10-2 (11738614_at) / Fold change /veh KRTAP10-2 (11738614_at) / RFU ARHGAP8 /// PRR5-ARHGAP8 (11727945_x_at) / Fold change /veh ARHGAP8 /// PRR5-ARHGAP8 (11727945_x_at) / RFU KRTAP5-7 /// NADSYN1 (11734609_at) / Fold change /veh KRTAP5-7 /// NADSYN1 (11734609_at) / RFU RASL12 (11751679_a_at) / Fold change /veh RASL12 (11751679_a_at) / RFU CDKN2B (11736163_a_at) / Fold change /veh CDKN2B (11736163_a_at) / RFU PRF1 (11729649_at) / Fold change /veh PRF1 (11729649_at) / RFU, ZNF638 /// ZNF638-IT1 / Fold change vs veh, ZNF638 /// ZNF638-IT1 / RFU, PANK3 / Fold change vs veh, PANK3 / RFU, SH3YL1 / Fold change vs veh, SH3YL1 / RFU, ZEB2 / Fold change vs veh, ZEB2 / RFU, NRIP1 / Fold change vs veh, NRIP1 / RFU, PTTG1IP / Fold change vs veh, PTTG1IP / RFU, CAPN2 / Fold change vs veh, CAPN2 / RFU, MED14 / Fold change vs veh, MED14 / RFU, SNORA58 / Fold change vs veh, SNORA58 / RFU, C1orf63 / Fold change vs veh, C1orf63 / RFU, LRRFIP1 / Fold change vs veh, LRRFIP1 / RFU, NDUFAF7 / Fold change vs veh, NDUFAF7 / RFU, SLC12A2 / Fold change vs veh, SLC12A2 / RFU, IBTK / Fold change vs veh, IBTK / RFU, ESF1 / Fold change vs veh, ESF1 / Fold change vs veh, TMEM50B / RFU, TAOK1 / Fold change vs veh, TAOK1 / RFU, ACBD3 / Fold change vs veh, ACBD3 / RFU, TMA16 / Fold change vs veh, TMA16 / RFU, RWDD3 / Fold change vs veh, RWDD3 / RFU, BCAT1 / Fold change vs veh, BCAT1 / RFU, EDEM3 / Fold change vs veh, EDEM3 / RFU, TMEM33 / Fold change vs veh, TMEM33 / RFU, WDR75 / Fold change vs veh, WDR75 / RFU, AHCTF1 / Fold change vs veh, AHCTF1 / RFU, TFRC / Fold change vs veh, TFRC / RFU, ZDHHC17 / Fold change vs veh, ZDHHC17 / RFU, NOM1 / Fold change vs veh, NOM1 / RFU, ARL8B / Fold change vs veh, ARL8B / RFU, ZBTB11 / Fold change vs veh, ZBTB11 / RFU, TAMM41 / Fold change vs veh, TAMM41 / RFU, KIAA1704 /// LOC100996395 / Fold change vs veh, KIAA1704 /// LOC100996395 / RFU, ING1 / Fold change vs veh, ING1 / RFU, TRMT61B / Fold change vs veh, TRMT61B / RFU, FUBP3 / Fold change vs veh, FUBP3 / RFU, TP53 / Fold change vs veh, TP53 / RFU, TNKS2 / Fold change vs veh, TNKS2 / RFU, ZFP14 / Fold change vs veh, ZFP14 / RFU, ACTR2 / Fold change vs veh, ACTR2 / RFU, PPP3R1 / Fold change vs veh, PPP3R1 / RFU, PIK3R1 / Fold change vs veh, PIK3R1 / RFU, HNRNPA1 / Fold change vs veh, HNRNPA1 / RFU, RNF170 / Fold change vs veh, RNF170 / RFU, ZNF28 / Fold change vs veh, ZNF28 / RFU, RNGTT / Fold change vs veh, RNGTT / RFU, OGT / Fold change vs veh, OGT / RFU, BRD1 / Fold change vs veh, BRD1 / RFU, MARS / Fold change vs veh, MARS / RFU, ZNF655 / Fold change vs veh, ZNF655 / RFU, FAHD1 / Fold change vs veh, FAHD1 / RFU, BDP1 / Fold change vs veh, BDP1 / RFU, LRRCC1 / Fold change vs veh, LRRCC1 / RFU, ARID1A / Fold change vs veh, ARID1A / RFU, ZNF146 / Fold change vs veh, ZNF146 / RFU, ZNF330 / Fold change vs veh, ZNF330 / RFU, GPN3 / Fold change vs veh, GPN3 / RFU, C9orf123 / Fold change vs veh, C9orf123 / RFU, N4BP2L2 / Fold change vs veh, N4BP2L2 / RFU, ARFIP1 / Fold change vs veh, ARFIP1 / RFU, FAM179B / Fold change vs veh, FAM179B / RFU, BCL10 / Fold change vs veh, BCL10 / RFU, UHRF1BP1L / Fold change vs veh, UHRF1BP1L / RFU, BET1 / Fold change vs veh, BET1 / RFU, CNOT2 / Fold change vs veh, CNOT2 / RFU, ZNF268 / Fold change vs veh, ZNF268 / Fold change vs veh, ZNF507 / RFU, DGCR2 / Fold change vs veh, DGCR2 / RFU, WDSUB1 / Fold change vs veh, WDSUB1 / Fold change vs veh, HSP90B1 /// MIR3652 / RFU, ADSS / Fold change vs veh, ADSS / RFU, GK / Fold change vs veh, GK / RFU, ZNF148 / Fold change vs veh, ZNF148 / RFU, TAF9 / Fold change vs veh, TAF9 / RFU, SLC1A5 / Fold change vs veh, SLC1A5 / RFU, SLMO2 / Fold change vs veh, SLMO2 / RFU, ABCC4 / Fold change vs veh, ABCC4 / RFU, LOC101060439 /// RAP1B / Fold change vs veh, LOC101060439 /// RAP1B / RFU, RFX7 / Fold change vs veh, RFX7 / RFU, GTPBP10 / Fold change vs veh, GTPBP10 / RFU, CNEP1R1 / Fold change vs veh, CNEP1R1 / RFU, BIVM-ERCC5 /// ERCC5 / Fold change vs veh, BIVM-ERCC5 /// ERCC5 / RFU, ILF3 / Fold change vs veh, ILF3 / RFU 11762660_at / Fold change /veh 11762660_at / RFU VCAN (11757783_s_at) / Fold change /veh VCAN (11757783_s_at) / RFU DDX43 (11728927_at) / Fold change /veh DDX43 (11728927_at) / RFU KRT8 (11758188_x_at) / Fold change /veh KRT8 (11758188_x_at) / RFU NKD1 (11759106_at) / Fold change /veh NKD1 (11759106_at) / RFU SRD5A1 (11742802_a_at) / Fold change /veh SRD5A1 (11742802_a_at) / RFU TPSAB1 /// TPSB2 (11721975_s_at) / Fold change /veh TPSAB1 /// TPSB2 (11721975_s_at) / RFU GSTM3 (11746129_a_at) / Fold change /veh GSTM3 (11746129_a_at) / RFU IL23R (11737362_x_at) / Fold change /veh IL23R (11737362_x_at) / RFU TMEM51 (11727254_a_at) / Fold change /veh TMEM51 (11727254_a_at) / RFU PIWIL2 (11732686_x_at) / Fold change /veh PIWIL2 (11732686_x_at) / RFU ORM1 (11744905_x_at) / Fold change /veh ORM1 (11744905_x_at) / RFU CCDC152 (11743942_at) / Fold change /veh CCDC152 (11743942_at) / RFU ECM1 (11717891_a_at) / Fold change /veh ECM1 (11717891_a_at) / RFU IL23R (11748794_a_at) / Fold change /veh IL23R (11748794_a_at) / RFU TNFAIP8L3 (11732012_x_at) / Fold change /veh TNFAIP8L3 (11732012_x_at) / RFU MBOAT4 (11741988_at) / Fold change /veh MBOAT4 (11741988_at) / RFU 11764193_at / Fold change /veh 11764193_at / RFU TMEM53 (11763286_at) / Fold change /veh TMEM53 (11763286_at) / RFU MAGEB2 (11727129_at) / Fold change /veh MAGEB2 (11727129_at) / RFU TMEM200A (11744735_a_at) / Fold change /veh TMEM200A (11744735_a_at) / RFU CCDC152 (11751479_a_at) / Fold change /veh CCDC152 (11751479_a_at) / RFU FAM211A (11726209_a_at) / Fold change /veh FAM211A (11726209_a_at) / RFU RGS16 (11746705_a_at) / Fold change /veh RGS16 (11746705_a_at) / RFU VCAN (11755009_s_at) / Fold change /veh VCAN (11755009_s_at) / RFU RHOB (11743442_s_at) / Fold change /veh RHOB (11743442_s_at) / RFU RGS16 (11720943_a_at) / Fold change /veh RGS16 (11720943_a_at) / RFU RGS16 (11720944_at) / Fold change /veh RGS16 (11720944_at) / RFU, VPS4B / Fold change vs veh, VPS4B / RFU, CREB1 / Fold change vs veh, CREB1 / RFU, DNAJC13 / Fold change vs veh, DNAJC13 / RFU, GNAQ / Fold change vs veh, GNAQ / RFU, CDK5R1 / Fold change vs veh, CDK5R1 / RFU, ZRANB3 / Fold change vs veh, ZRANB3 / RFU, CUL4A / Fold change vs veh, CUL4A / RFU, CCNY / Fold change vs veh, CCNY / RFU, UFL1 / Fold change vs veh, UFL1 / RFU, COG3 / Fold change vs veh, COG3 / RFU, DIAPH2 / Fold change vs veh, DIAPH2 / RFU, SKA2 / Fold change vs veh, SKA2 / RFU, AFF3 / Fold change vs veh, AFF3 / RFU, LMF1 / Fold change vs veh, LMF1 / RFU, IPO11 / Fold change vs veh, IPO11 / RFU, DFFB / Fold change vs veh, DFFB / RFU, FOXP1 / Fold change vs veh, FOXP1 / RFU, CARD8 / Fold change vs veh, CARD8 / RFU, STRN3 / Fold change vs veh, STRN3 / RFU, ADK / Fold change vs veh, ADK / RFU, RASSF2 / Fold change vs veh, RASSF2 / RFU, WIPF1 / Fold change vs veh, WIPF1 / RFU, LARP1B / Fold change vs veh, LARP1B / RFU, RASA1 / Fold change vs veh, RASA1 / RFU, RB1 / Fold change vs veh, RB1 / RFU, PPFIA1 / Fold change vs veh, PPFIA1 / RFU, MAT2A / Fold change vs veh, MAT2A / RFU, CCT5 / Fold change vs veh, CCT5 / RFU, WDR92 / Fold change vs veh, WDR92 / RFU, CUX1 / Fold change vs veh, CUX1 / RFU, TTC7A / Fold change vs veh, TTC7A / RFU, TMEM135 / Fold change vs veh, TMEM135 / RFU, DEPTOR / Fold change vs veh, DEPTOR / RFU, CPM / Fold change vs veh, CPM / RFU, DNAJB6 / Fold change vs veh, DNAJB6 / RFU, CACNA2D3 / Fold change vs veh, CACNA2D3 / RFU, DTX4 / Fold change vs veh, DTX4 / RFU, TFCP2 / Fold change vs veh, TFCP2 / RFU, GMCL1 /// GMCL1P1 / Fold change vs veh, GMCL1 /// GMCL1P1 / RFU, AEBP2 / Fold change vs veh, AEBP2 / RFU, SNHG1 /// SNORD22 /// SNORD25 /// SNORD26 /// SNORD27 /// SNORD28 /// SNORD29 /// SNORD31 / Fold change vs veh, SNHG1 /// SNORD22 /// SNORD25 /// SNORD26 /// SNORD27 /// SNORD28 /// SNORD29 /// SNORD31 / Fold change (Aza/veh), C12orf56 (ProbeSet 11735607_a_at) / Fold change (ACY-1035/veh), C12orf56 (ProbeSet 11735607_a_at) / Fold change (Aza/veh), FGFR1OP (ProbeSet 11751329_s_at) / Fold change (ACY-1035/veh), FGFR1OP (ProbeSet 11751329_s_at) / Fold change (Aza/veh), VPS36 (ProbeSet 11739960_a_at) / Fold change (ACY-1035/veh), VPS36 (ProbeSet 11739960_a_at) / RFU SYPL1 (11715823_x_at) / Fold change /veh SYPL1 (11715823_x_at) / RFU IGFBP7 (11715501_s_at) / Fold change /veh IGFBP7 (11715501_s_at) / RFU REEP3 (11722064_at) / Fold change /veh REEP3 (11722064_at) / RFU IGLL1 (11728026_x_at) / Fold change /veh IGLL1 (11728026_x_at): dose or concentration left out as unconfirmed
Details: MV-4-11 cells, 48 hours

SMILES: Nc1ncn([C@@H]2O[C@H](CO)[C@@H](O)[C@H]2O)c(=O)n1 [azacitidine]
- Fold change /veh BIN1 (11741810_x_at): 1.02
